Measured values taken from ChEMBL document CHEMBL6177980 (J Med Chem, 2025).
In brackets after ≈: the same amount, converted by molar mass. Activity calls are given as the source filed them. No cut-off for these calls is given here.

Key:
[1] = Prodrug conversion in Sprague-Dawley rat assessed as Cmax of 4'-Fluorouridine metabolite at 6 mg/kg, po by LC-MS/MS analysis; assay type: ADME, organism-based; details: in vivo
[2] = Stability of compound at pH 4.0 assessed as change in purity at 1 mg/ml incubated for 4 hrs by HPLC analysis; assay type: physicochemical; details: buffer, pH 4, 4 h
[3] = Prodrug conversion in Sprague-Dawley rat assessed as Cmax of 4'-Fluorouridine metabolite at 6 mg/kg/day, po treated for 7 days by LC-MS/MS analysis; assay type: ADME, organism-based; details: in vivo, 168 h, time 7 day
HepG2 [4] = assay: Mitochondrial toxicity in human HepG2 cells cultured in glucose containing medium at 100 uM; assay type: cell-based; details: hepg2, 100 µM
[5] = Stability in SGF assessed as compound degradation measured for 24 hrs by HPLC analysis; assay type: physicochemical; details: simulated gastric fluid (SGF), read-out: Drug degradation
[6] = molecular target: Voltage-gated inwardly rectifying potassium channel KCNH2 (Homo sapiens, UniProt Q12809); assay: Inhibition of hERG; assay type: toxicity
Chain of Voltage-gated inwardly rectifying potassium channel KCNH2 (Q12809 whole entry): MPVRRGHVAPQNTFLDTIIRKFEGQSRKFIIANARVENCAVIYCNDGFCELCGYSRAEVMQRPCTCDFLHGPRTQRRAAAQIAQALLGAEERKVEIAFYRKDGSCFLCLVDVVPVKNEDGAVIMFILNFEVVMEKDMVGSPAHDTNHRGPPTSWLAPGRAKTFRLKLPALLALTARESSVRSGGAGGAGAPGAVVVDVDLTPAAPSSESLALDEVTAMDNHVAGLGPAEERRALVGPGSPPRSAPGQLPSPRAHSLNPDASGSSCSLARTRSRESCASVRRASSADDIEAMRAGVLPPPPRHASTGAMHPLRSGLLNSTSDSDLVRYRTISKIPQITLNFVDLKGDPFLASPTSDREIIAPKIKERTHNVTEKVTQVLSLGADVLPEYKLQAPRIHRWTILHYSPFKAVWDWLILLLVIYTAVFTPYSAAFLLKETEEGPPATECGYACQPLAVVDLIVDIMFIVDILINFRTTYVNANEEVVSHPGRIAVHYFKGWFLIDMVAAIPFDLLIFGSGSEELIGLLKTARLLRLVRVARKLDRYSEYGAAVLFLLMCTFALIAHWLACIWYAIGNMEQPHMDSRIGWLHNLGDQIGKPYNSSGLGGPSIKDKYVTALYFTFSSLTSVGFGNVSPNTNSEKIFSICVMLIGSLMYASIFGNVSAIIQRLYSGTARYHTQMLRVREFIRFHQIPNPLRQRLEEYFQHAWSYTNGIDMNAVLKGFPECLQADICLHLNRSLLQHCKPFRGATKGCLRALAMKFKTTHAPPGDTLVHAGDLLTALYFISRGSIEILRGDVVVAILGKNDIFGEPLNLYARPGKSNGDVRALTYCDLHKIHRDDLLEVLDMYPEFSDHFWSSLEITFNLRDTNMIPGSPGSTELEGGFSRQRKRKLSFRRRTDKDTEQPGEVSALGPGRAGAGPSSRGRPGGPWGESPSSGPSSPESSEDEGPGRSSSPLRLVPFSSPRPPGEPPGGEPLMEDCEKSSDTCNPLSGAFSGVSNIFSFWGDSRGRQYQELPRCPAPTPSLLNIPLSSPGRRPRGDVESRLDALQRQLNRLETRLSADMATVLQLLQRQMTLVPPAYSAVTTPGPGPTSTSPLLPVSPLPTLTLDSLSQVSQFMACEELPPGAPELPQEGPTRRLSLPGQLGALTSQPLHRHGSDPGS

[7] = Prodrug conversion in Beagle dog assessed as half life of 4'-Fluorouridine metabolite treated orally or intravenously by LC-MS/MS analysis; assay type: ADME, Canis lupus familiaris; details: in vivo, po
[8] = Prodrug conversion in Sprague-Dawley rat assessed as 4'-Fluorouridine-NTP metabolite formation in lung at 6 mg/kg, po measured for 0.5 to 24 hrs by LC-MS/MS analysis; assay type: ADME, organism-based; details: in vivo, time 0.5-24 hrs
[9] = Prodrug conversion in Sprague-Dawley rat assessed as 4'-Fluorouridine metabolite formation in heart at 6 mg/kg, po measured for 0.5 to 24 hrs by LC-MS/MS analysis; assay type: ADME, organism-based; details: in vivo, time 0.5-24 hrs
[10] = Stability in SIF assessed as compound degradation measured for 24 hrs by HPLC analysis; assay type: physicochemical; details: simulated intestinal fluid (SIF), read-out: Drug degradation
[11] = Toxicity in Sprague-Dawley rat assessed as drug tolerance administered as single dose; details: in vivo
[12] = Stability of compound at pH 1.5 assessed as change in purity at 1 mg/ml incubated for 12 hrs by HPLC analysis; assay type: physicochemical; details: buffer, pH 1.5, 12 h
[13] = Prodrug conversion in Sprague-Dawley rat liver microsomes assessed as parent nucleoside metabolite formation at 1 uM measured up to 60 mins in presence of BNPP/NADPH/UDPGA by LC-MS/MS analysis; assay type: ADME, Microsome; details: 1 h
[14] = Prodrug conversion in Beagle dog plasma assessed as parent nucleoside metabolite formation administered orally or intravenously; assay type: ADME, cell-free, Canis lupus familiaris; details: po
[15] = Prodrug conversion in Sprague-Dawley rat assessed as 4'-Fluorouridine-NTP metabolite formation in thymus at 6 mg/kg, po measured for 0.5 to 24 hrs by LC-MS/MS analysis; assay type: ADME, organism-based; details: in vivo, time 0.5-24 hrs
[16] = Stability in C57BL/6J mouse plasma administered orally or intravenously; assay type: ADME, cell-free; details: po
[17] = Prodrug conversion in Sprague-Dawley rat assessed as Cmax of 4'-Fluorouridine metabolite at 2 mg/kg, po by LC-MS/MS analysis; assay type: ADME, organism-based; details: in vivo
[18] = tested on: Mammarenavirus choriomeningitidis; assay: Antiviral activity against LCMV infected in C57BL/6-Prf1tm1Sdz/J mouse assessed as reduction in viral titer in kidney treated orally once daily for 7 days by RT-qPCR analysis; assay type: functional, organism-based; details: dose 1-5 mg/kg, route po, time 7.0 day
[19] = Prodrug conversion in C57BL/6J mouse assessed as AUC (0 to t) of 4'-Fluorouridine metabolite at 2 mg/kg, po by LC-MS/MS analysis; assay type: ADME, organism-based; details: in vivo
[20] = tested on: Mammarenavirus choriomeningitidis; assay: In vivo antiviral activity against LCMV infected in C57BL/6-Prf1tm1Sdz/J mouse assessed as animal survival rate at 1 to 5 mg/kg, po qd treated for 7 days relative to control; assay type: functional; details: dose 1-5 mg/kg, time 7 day
[21] = tested on: Mammarenavirus choriomeningitidis; assay: In vivo antiviral activity against LCMV infected in C57BL/6-Prf1tm1Sdz/J mouse assessed as void of inflammatory cell inflammation in spleen at 1 to 5 mg/kg, po qd for 7 days; assay type: functional, organism-based; details: dose 1-5 mg/kg, time 7.0 day
[22] = Prodrug conversion in C57BL/6J mouse plasma assessed as parent nucleoside metabolite formation at 1 uM measured up to 60 mins by LC-MS/MS analysis; assay type: ADME, cell-free; details: 1 h
[23] = Prodrug conversion in Sprague-Dawley rat assessed as 4'-Fluorouridine metabolite formation in kidney at 6 mg/kg, po measured for 0.5 to 24 hrs by LC-MS/MS analysis; assay type: ADME, organism-based; details: in vivo, time 0.5-24 hrs
[24] = Prodrug conversion in Sprague-Dawley rat assessed as AUC (0 to t) of 4'-Fluorouridine metabolite at 6 mg/kg/day, po treated for 7 days by LC-MS/MS analysis; assay type: ADME, organism-based; details: in vivo, 168 h, time 7 day
[25] = Prodrug conversion in Sprague-Dawley rat plasma assessed as parent nucleoside metabolite formation at 1 uM measured up to 60 mins by LC-MS/MS analysis; assay type: ADME, cell-free; details: 1 h
[26] = Prodrug conversion in Sprague-Dawley rat assessed as 4'-Fluorouridine metabolite formation in small intestine at 6 mg/kg, po measured for 0.5 to 24 hrs by LC-MS/MS analysis; assay type: ADME, organism-based; details: in vivo, time 0.5-24 hrs
HepG2 [27] = assay: Mitochondrial toxicity in human HepG2 cells cultured in galactose containing medium at 100 uM; assay type: cell-based; details: hepg2, 100 µM
[28] = Prodrug conversion in Beagle dog assessed as Cmax of 4'-Fluorouridine metabolite at 3 mg/kg, po by LC-MS/MS analysis; assay type: ADME, organism-based, Canis lupus familiaris; details: in vivo
[29] = Prodrug conversion in Sprague-Dawley rat assessed as Cmax of 4'-Fluorouridine metabolite at 20 mg/kg, po by LC-MS/MS analysis; assay type: ADME, organism-based; details: in vivo
[30] = Prodrug conversion in Sprague-Dawley rat assessed as 4'-Fluorouridine-NTP metabolite formation in spleen at 6 mg/kg, po measured for 0.5 to 24 hrs by LC-MS/MS analysis; assay type: ADME, organism-based; details: in vivo, time 0.5-24 hrs
[31] = Aqueous solubility of compound; assay type: physicochemical; details: aqueous medium
[32] = tested on: Mammarenavirus choriomeningitidis; assay: In vivo antiviral activity against LCMV infected in C57BL/6-Prf1tm1Sdz/J mouse assessed as appearance of regular splenic nodule structure at 1 to 5 mg/kg, po qd for 7 days; assay type: functional, organism-based; details: dose 1-5 mg/kg, time 7.0 day
[33] = Stability of compound at pH 1.5 assessed as change in purity at 1 mg/ml incubated for 24 hrs by HPLC analysis; assay type: physicochemical; details: buffer, pH 1.5, 24 h
[34] = Stability of compound at pH 6.8 assessed as change in purity at 1 mg/ml incubated for 24 hrs by HPLC analysis; assay type: physicochemical; details: buffer, pH 6.8, 24 h
[35] = Cytotoxicity against African green monkey Vero cells; assay type: toxicity, cell-based; details: chlorocebus sabaeus
[36] = Stability of compound at pH 4.0 assessed as change in purity at 1 mg/ml incubated for 24 hrs by HPLC analysis; assay type: physicochemical; details: buffer, pH 4, 24 h
[37] = Prodrug conversion in Beagle dog assessed as Cmax of 4'-Fluorouridine metabolite at 1 mg/kg, po by LC-MS/MS analysis; assay type: ADME, organism-based, Canis lupus familiaris; details: in vivo
[38] = Prodrug conversion in Sprague-Dawley rat assessed as 4'-Fluorouridine metabolite formation in liver at 6 mg/kg, po measured for 0.5 to 24 hrs by LC-MS/MS analysis; assay type: ADME, organism-based; details: in vivo, time 0.5-24 hrs

## CC(C)C(=O)OC[C@@]1(F)O[C@@H](n2ccc(=O)n(COC(=O)c3cccnc3)c2=O)[C@H](OC(=O)C(C)C)[C@@H]1OC(=O)C(C)C
[1]
  Cmax: 329 ng/mL
[2]
  Activity: 0%
[3]
  Cmax: 383 ng/mL
HepG2 [4]
  Activity: Non-toxic
[5]
  degraded at 24 h: < 5%
[6]
  inhibition (INH): Not_active
[7]
  t1/2: 1 h
[8]
  Drug metabolism: metabolite_detected
[9]
  Drug metabolism: metabolite_detected
[10]
  degraded at 24 h: < 5%
[11]
  Activity: Non-toxic
[12]
  Activity: -4.2%
[13]
  Drug metabolism: metabolite_notdetected
[14]
  Drug metabolism: metabolite_detected
[15]
  Drug metabolism: metabolite_detected
[16]
  Stability: Unstable
[17]
  Cmax: 119 ng/mL
[18]
  Activity: Dose-dependent-effect
[19]
  AUCt: 826 ng·h/mL
[20]
  Survival: 100%
[21]
  Activity: Active
[22]
  Drug metabolism: metabolite_detected
[23]
  Drug metabolism: metabolite_detected
[24]
  AUCt: 4084 ng·h/mL
[25]
  Drug metabolism: metabolite_detected
[26]
  Drug metabolism: metabolite_detected
HepG2 [27]
  Activity: Non-toxic
[28]
  Cmax: 495 ng/mL
[29]
  Cmax: 1142 ng/mL
[30]
  Drug metabolism: metabolite_detected
[31]
  solubility: 10 µg/mL (≈ 16.5 µM)
[32]
  Activity: Active
[33]
  Activity: -9.2%
[34]
  Activity: -0.6%
[35]
  CC50: > 100 µM
[36]
  Activity: -0.1%
[37]
  Cmax: 139 ng/mL
[38]
  Drug metabolism: metabolite_detected
